How the values were obtained:
BT-474 = assay: Cancer cell panel, cell viability (resazurin): Breast, BT-474; format: cell-based; conditions: Homo sapiens; BT-474 (Breast), 72 hours, single agent; read-out: Example 3 IC50
MDA-MB-453 = assay: Cancer cell panel, cell viability (resazurin): Breast, MDA-MB-453; format: cell-based; conditions: Homo sapiens; MDA-MB-453 (Breast), 72 hours, single agent; read-out: Example 3 IC50
LoVo = assay: Cancer cell panel, cell viability (resazurin): Colon, LoVo; format: cell-based; conditions: Homo sapiens, 72 hours, single agent, read-out: Example 3 IC50
SkBr-3 = assay: Cancer cell panel, cell viability (resazurin): Breast, SkBr-3; format: cell-based; conditions: Homo sapiens, SK-BR-3; SkBr-3 (Breast), 72 hours, single agent; read-out: Example 3 IC50
Method: (§1) Cells were plated in 96-well plates and treated for 72 hours with a serially diluted CK2 inhibitor or anti-cancer drug or their combination. The suspension cell lines were treated right after plating, while the adherent cells were allowed to attach overnight prior to the start of the treatment.
(§2) Cell viability was determined by adding resazurin to cell cultures and measuring fluorescence with a plate reader. Relative cell viability was calculated by dividing the cell viability signal from a test sample by that of a non-treated control. […] Bliss Independence and Highest Single Agent models were used to determine if there is synergy, additivity or antagonism between the CK2 inhibitor and an anti-cancer drug.

786-O = assay: Cancer cell panel, cell viability (resazurin): Renal, 786-O; format: cell-based; conditions: Homo sapiens, 786-0; 786-O (Renal), 72 hours, single agent; read-out: Example 3 IC50
Caki-1 = assay: Cancer cell panel, cell viability (resazurin): Renal, Caki-1; format: cell-based; conditions: Homo sapiens; Caki-1 (Renal), 72 hours, single agent; read-out: Example 3 IC50
Method: as §1, §2

Panc-1 = assay: Cancer cell panel, cell viability (resazurin): Pancreatic, Panc-1; format: cell-based; conditions: Homo sapiens; Panc-1 (Pancreatic), 72 hours, single agent; read-out: Example 3 IC50
Caov-3 = assay: Cancer cell panel, cell viability (resazurin): Ovarian, Caov-3; format: cell-based; conditions: Homo sapiens; Caov-3 (Ovarian), 72 hours, single agent; read-out: Example 3 IC50
A375 = assay: Cancer cell panel, cell viability (resazurin): Melanoma, A375; format: cell-based; conditions: Homo sapiens, A-375, 72 hours, single agent, read-out: Example 3 IC50
NAMALWA = assay: Cancer cell panel, cell viability (resazurin): Burkitt's Lymphoma, NAMALWA; format: cell-based; conditions: 72 hours, single agent, read-out: Example 3 IC50
Method: as §1, §2

LnCap = assay: Cancer cell panel, cell viability (resazurin): Prostate, LnCap; format: cell-based; conditions: Homo sapiens, 72 hours, single agent, read-out: Example 3 IC50
A2780 = assay: Cancer cell panel, cell viability (resazurin): Ovarian, A2780; format: cell-based; conditions: Homo sapiens, 72 hours, single agent, read-out: Example 3 IC50
HCT116 = assay: Cancer cell panel, cell viability (resazurin): Colon, HCT116; format: cell-based; conditions: Homo sapiens, HCT-116, 72 hours, single agent, read-out: Example 3 IC50
Method: as §1, §2

SKOV-3 = assay: Cancer cell panel, cell viability (resazurin): Ovarian, SKOV-3; format: cell-based; conditions: Homo sapiens, SK-OV-3; SKOV-3 (Ovarian), 72 hours, single agent; read-out: Example 3 IC50
MOLT4 = assay: Cancer cell panel, cell viability (resazurin): Leukemia, MOLT4; format: cell-based; conditions: Homo sapiens, MOLT-4, 72 hours, single agent, read-out: Example 3 IC50
T47D = assay: Cancer cell panel, cell viability (resazurin): Breast, T47D; format: cell-based; conditions: Homo sapiens, 72 hours, single agent, read-out: Example 3 IC50
BxPC3 = assay: Cancer cell panel, cell viability (resazurin): Pancreatic, BxPC3; format: cell-based; conditions: Homo sapiens, BXPC-3, 72 hours, single agent, read-out: Example 3 IC50
Method: as §1, §2

OVCAR-3 = assay: Cancer cell panel, cell viability (resazurin): Ovarian, OVCAR-3; format: cell-based; conditions: Homo sapiens; OVCAR-3 (Ovarian), 72 hours, single agent; read-out: Example 3 IC50
BT-20 = assay: Cancer cell panel, cell viability (resazurin): Breast, BT-20; format: cell-based; conditions: Homo sapiens; BT-20 (Breast), 72 hours, single agent; read-out: Example 3 IC50
H23 = assay: Cancer cell panel, cell viability (resazurin): NSCLC, H23; format: cell-based; conditions: Homo sapiens, NCI-H23, 72 hours, single agent, read-out: Example 3 IC50
Daudi = assay: Cancer cell panel, cell viability (resazurin): Burkitt's Lymphoma, Daudi; format: cell-based; conditions: Homo sapiens, 72 hours, single agent, read-out: Example 3 IC50
Method: as §1, §2

H2122 = assay: Cancer cell panel, cell viability (resazurin): NSCLC, H2122; format: cell-based; conditions: Homo sapiens, NCI-H2122, 72 hours, single agent, read-out: Example 3 IC50
EOL-1 = assay: Cancer cell panel, cell viability (resazurin): Leukemia, EOL-1; format: cell-based; conditions: Homo sapiens, EOL1; EOL-1 (Leukemia), 72 hours, single agent; read-out: Example 3 IC50
Method: as §1, §2

purified CK2α enzyme = purified CK2α enzyme (Homo sapiens, UniProt P68400); assay: CK2 Protein Kinase Inhibition Assay (coupled PK/LDH assay); format: biochemical; conditions: CK2 enzyme 25 nM, 100 μM ATP, 37° C., Morrison equation
Chain of purified CK2α enzyme (P68400 whole entry): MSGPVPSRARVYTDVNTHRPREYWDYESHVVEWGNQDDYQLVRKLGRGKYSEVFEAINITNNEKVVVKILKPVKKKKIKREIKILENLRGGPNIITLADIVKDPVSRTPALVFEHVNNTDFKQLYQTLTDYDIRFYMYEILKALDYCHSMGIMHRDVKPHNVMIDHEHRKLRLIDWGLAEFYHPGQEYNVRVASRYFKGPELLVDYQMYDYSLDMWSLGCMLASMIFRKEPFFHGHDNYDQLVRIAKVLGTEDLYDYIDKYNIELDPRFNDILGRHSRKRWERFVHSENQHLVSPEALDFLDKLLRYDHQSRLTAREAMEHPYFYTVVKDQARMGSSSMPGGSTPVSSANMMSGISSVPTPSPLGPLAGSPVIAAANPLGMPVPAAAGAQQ
In short: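 Purified CK2α at 25 nM final, 1.5 mM peptide substrate, 100 μM ATP, pH 8.25 Tris buffer; compounds pre-incubated 10 min at 37° C. ADP coupled via PK/LDH to NADH loss at 340 nm over 30 min, 37° C. Ki from rate versus concentration by Morrison equation, triplicate points.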

A549 = assay: Cancer cell panel, cell viability (resazurin): NSCLC, A549; format: cell-based; conditions: Homo sapiens, 72 hours, single agent, read-out: Example 3 IC50
HL60 = assay: Cancer cell panel, cell viability (resazurin): Leukemia, HL60; format: cell-based; conditions: Homo sapiens, HL-60, 72 hours, single agent, read-out: Example 3 IC50
MDA-MB-157 = assay: Cancer cell panel, cell viability (resazurin): Breast, MDA-MB-157; format: cell-based; conditions: Homo sapiens; MDA-MB-157 (Breast), 72 hours, single agent; read-out: Example 3 IC50
U87MG = assay: Cancer cell panel, cell viability (resazurin): Glioblastoma, U87MG; format: cell-based; conditions: Homo sapiens, U-87 MG, 72 hours, single agent, read-out: Example 3 IC50
Method: as §1, §2

Raji = assay: Cancer cell panel, cell viability (resazurin): Burkitt's Lymphoma, Raji; format: cell-based; conditions: Homo sapiens, 72 hours, single agent, read-out: Example 3 IC50
Method: as §1, §2

MeWO = assay: Cancer cell panel, cell viability (resazurin): Melanoma, MeWO; format: cell-based; conditions: Homo sapiens, 72 hours, single agent, read-out: Example 3 IC50
Method: as §1, §2

IC50 (BT-474): 0.338 µM
IC50 (MDA-MB-453): 0.148 µM
IC50 (LoVo): 0.17 µM
IC50 (SkBr-3): 0.228 µM
IC50 (786-O): 2.62 µM
IC50 (Caki-1): 0.171 µM
IC50 (Panc-1): 0.539 µM
IC50 (Caov-3): 0.05 µM
IC50 (A375): 0.218 µM
IC50 (NAMALWA): 0.206 µM
IC50 (LnCap): 0.42 µM
IC50 (A2780): 0.527 µM
IC50 (HCT116): 0.356 µM
IC50 (SKOV-3): 1.38 µM
IC50 (MOLT4): 0.42 µM
IC50 (T47D): 0.861 µM
IC50 (BxPC3): 3.6 µM
IC50 (OVCAR-3): 0.042 µM
IC50 (BT-20): 0.098 µM
IC50 (H23): 0.575 µM
IC50 (Daudi): 0.217 µM
IC50 (H2122): 0.227 µM
IC50 (EOL-1): 0.138 µM
Ki (purified CK2α enzyme): < 0.0025 µM
IC50 (A549): 1.67 µM
IC50 (HL60): 0.261 µM
IC50 (MDA-MB-157): 0.447 µM
IC50 (U87MG): 1.12 µM
IC50 (Raji): 0.249 µM
IC50 (MeWO): 0.263 µM
SMILES: C[S@+]([O-])Cc1cc(Nc2cc(NC3CC3)n3ncc(C#N)c3n2)ccc1Cl [Example 3, (S)(+)-5-((4-Chloro-3-((methylsulfinyl)methyl)phenyl)amino)-7-(cyclopropylamino)pyrazolo[1,5-a]pyrimidine-3-carbonitrile]

Reference: patent US10227344B2, “CK2 inhibitors, compositions and methods thereof” (Polaris Pharmaceuticals, Inc., priority 2016, dated 2019)
